Results taken from article PMC12090182, “Repurposing of the RIPK1-Selective Benzo[1,4]oxazepin-4-one Scaffold for the Development of a Type III LIMK1/2 Inhibitor” (ACS Chemical Biology, 2025).
Like-named read-outs stand apart in the source and are kept apart here.

Test system: HEK293T cells
Format: cell-based
Settings: HEK293T
How it was run: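 HEK293T and U2OS cells (DMEM) and MRC-9 fibroblasts (EMEM) exposed to compounds at 1 and 10 μM. Live-cell confocal imaging of cell shape and fluorescence before and at 12, 24 and 48 h. Normalized to 0.1% DMSO; biological duplicates with SEM.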

[1] = 1 µM, 0 h, biological replicate 1
[2] = 1 µM, 0 h, biological replicate 2
[3] = 1 µM, 12 h, biological replicate 1
[4] = 1 µM, 12 h, biological replicate 2
[5] = 1 µM, 24 h, biological replicate 1
[6] = 1 µM, 24 h, biological replicate 2
[7] = 1 µM, 48 h, biological replicate 1
[8] = 1 µM, 48 h, biological replicate 2
[9] = 10 µM, 0 h, biological replicate 1
[10] = 10 µM, 0 h, biological replicate 2
[11] = 10 µM, 12 h, biological replicate 1
[12] = 10 µM, 12 h, biological replicate 2
[13] = 10 µM, 24 h, biological replicate 1
[14] = 10 µM, 24 h, biological replicate 2
[15] = 10 µM, 48 h, biological replicate 1
[16] = 10 µM, 48 h, biological replicate 2

## CC(C)C(=O)Nc1ncc(-c2cc(C(F)F)nn2-c2c(Cl)cccc2Cl)s1 [LIMKi3]
[1]
  Cell count normalized to cells treated with DMSO control: 1.015
  Cell count per well: 303
  Population Fragmented Nuclei (%): 7.35%
  Population Healthy Nuclei (%): 47.06%
  Population Pyknosed Nuclei (%): 45.59%
  Population apoptotic cell (%): 38.71%
  Population cell that influence microtubule strucutre (%): 19.53%
  Population with increased mitochondrial mass (%): 60.16%
  Population with membrane disruption (%): 0.00%
[2]
  Cell count normalized to cells treated with DMSO control: 1.15
  Cell count per well: 263
  Population Fragmented Nuclei (%): 1.64%
  Population Healthy Nuclei (%): 65.98%
  Population Pyknosed Nuclei (%): 32.38%
  Population apoptotic cell (%): 63.29%
  Population cell that influence microtubule strucutre (%): 26.71%
  Population with increased mitochondrial mass (%): 85.09%
  Population with membrane disruption (%): 0.00%
[3]
  Cell count normalized to cells treated with DMSO control: 0.9245
  Cell count per well: 421
  Population Fragmented Nuclei (%): 4.05%
  Population Healthy Nuclei (%): 82.03%
  Population Pyknosed Nuclei (%): 13.92%
  Population apoptotic cell (%): 40.00%
  Population cell that influence microtubule strucutre (%): 44.44%
  Population with increased mitochondrial mass (%): 48.77%
  Population with membrane disruption (%): 0.62%
[4]
  Cell count normalized to cells treated with DMSO control: 1.019
  Cell count per well: 357
  Population Fragmented Nuclei (%): 6.58%
  Population Healthy Nuclei (%): 83.39%
  Population Pyknosed Nuclei (%): 10.03%
  Population apoptotic cell (%): 53.13%
  Population cell that influence microtubule strucutre (%): 34.59%
  Population with increased mitochondrial mass (%): 63.16%
  Population with membrane disruption (%): 0.38%
[5]
  Cell count normalized to cells treated with DMSO control: 0.9573
  Cell count per well: 581
  Population Fragmented Nuclei (%): 6.08%
  Population Healthy Nuclei (%): 81.40%
  Population Pyknosed Nuclei (%): 12.52%
  Population apoptotic cell (%): 38.57%
  Population cell that influence microtubule strucutre (%): 25.27%
  Population with increased mitochondrial mass (%): 30.55%
  Population with membrane disruption (%): 1.32%
[6]
  Cell count normalized to cells treated with DMSO control: 1.028
  Cell count per well: 464
  Population Fragmented Nuclei (%): 11.83%
  Population Healthy Nuclei (%): 78.42%
  Population Pyknosed Nuclei (%): 9.74%
  Population apoptotic cell (%): 30.95%
  Population cell that influence microtubule strucutre (%): 20.41%
  Population with increased mitochondrial mass (%): 38.46%
  Population with membrane disruption (%): 0.30%
[7]
  Cell count normalized to cells treated with DMSO control: 0.8177
  Cell count per well: 827
  Population Fragmented Nuclei (%): 14.02%
  Population Healthy Nuclei (%): 79.47%
  Population Pyknosed Nuclei (%): 6.51%
  Population apoptotic cell (%): 28.85%
  Population cell that influence microtubule strucutre (%): 17.17%
  Population with increased mitochondrial mass (%): 22.36%
  Population with membrane disruption (%): 1.10%
[8]
  Cell count normalized to cells treated with DMSO control: 1.021
  Cell count per well: 697
  Population Fragmented Nuclei (%): 11.19%
  Population Healthy Nuclei (%): 83.72%
  Population Pyknosed Nuclei (%): 5.09%
  Population apoptotic cell (%): 14.29%
  Population cell that influence microtubule strucutre (%): 14.58%
  Population with increased mitochondrial mass (%): 22.05%
  Population with membrane disruption (%): 0.69%
[9]
  Cell count normalized to cells treated with DMSO control: 1.049
  Cell count per well: 313
  Population Fragmented Nuclei (%): 6.13%
  Population Healthy Nuclei (%): 53.26%
  Population Pyknosed Nuclei (%): 40.61%
  Population apoptotic cell (%): 42.45%
  Population cell that influence microtubule strucutre (%): 17.27%
  Population with increased mitochondrial mass (%): 58.99%
  Population with membrane disruption (%): 0.00%
[10]
  Cell count normalized to cells treated with DMSO control: 1.189
  Cell count per well: 272
  Population Fragmented Nuclei (%): 5.14%
  Population Healthy Nuclei (%): 69.17%
  Population Pyknosed Nuclei (%): 25.69%
  Population apoptotic cell (%): 58.46%
  Population cell that influence microtubule strucutre (%): 23.43%
  Population with increased mitochondrial mass (%): 84.57%
  Population with membrane disruption (%): 0.00%
[11]
  Cell count normalized to cells treated with DMSO control: 0.8125
  Cell count per well: 370
  Population Fragmented Nuclei (%): 7.52%
  Population Healthy Nuclei (%): 78.06%
  Population Pyknosed Nuclei (%): 14.42%
  Population apoptotic cell (%): 54.35%
  Population cell that influence microtubule strucutre (%): 58.63%
  Population with increased mitochondrial mass (%): 84.34%
  Population with membrane disruption (%): 0.80%
[12]
  Cell count normalized to cells treated with DMSO control: 1.053
  Cell count per well: 369
  Population Fragmented Nuclei (%): 5.29%
  Population Healthy Nuclei (%): 71.47%
  Population Pyknosed Nuclei (%): 23.24%
  Population apoptotic cell (%): 41.77%
  Population cell that influence microtubule strucutre (%): 57.61%
  Population with increased mitochondrial mass (%): 88.89%
  Population with membrane disruption (%): 1.23%
[13]
  Cell count normalized to cells treated with DMSO control: 0.6376
  Cell count per well: 387
  Population Fragmented Nuclei (%): 7.23%
  Population Healthy Nuclei (%): 75.14%
  Population Pyknosed Nuclei (%): 17.63%
  Population apoptotic cell (%): 40.98%
  Population cell that influence microtubule strucutre (%): 62.69%
  Population with increased mitochondrial mass (%): 85.38%
  Population with membrane disruption (%): 0.38%
[14]
  Cell count normalized to cells treated with DMSO control: 0.8682
  Cell count per well: 392
  Population Fragmented Nuclei (%): 3.68%
  Population Healthy Nuclei (%): 77.34%
  Population Pyknosed Nuclei (%): 18.98%
  Population apoptotic cell (%): 47.76%
  Population cell that influence microtubule strucutre (%): 63.74%
  Population with increased mitochondrial mass (%): 83.88%
  Population with membrane disruption (%): 0.73%
[15]
  Cell count normalized to cells treated with DMSO control: 0.5082
  Cell count per well: 514
  Population Fragmented Nuclei (%): 8.84%
  Population Healthy Nuclei (%): 75.22%
  Population Pyknosed Nuclei (%): 15.95%
  Population apoptotic cell (%): 52.70%
  Population cell that influence microtubule strucutre (%): 69.63%
  Population with increased mitochondrial mass (%): 76.50%
  Population with membrane disruption (%): 0.29%
[16]
  Cell count normalized to cells treated with DMSO control: 0.7148
  Cell count per well: 488
  Population Fragmented Nuclei (%): 9.82%
  Population Healthy Nuclei (%): 75.45%
  Population Pyknosed Nuclei (%): 14.73%
  Population apoptotic cell (%): 34.85%
  Population cell that influence microtubule strucutre (%): 65.68%
  Population with increased mitochondrial mass (%): 74.26%
  Population with membrane disruption (%): 1.78%
